For 29 molecules, IC50 results are on record in US8410117B2, “Imidazopyrimidine derivatives” (Hoffmann-La Roche Inc., priority 2010, dated 2013).

T1 sequence (Q9Y233 1-779 isoform Q9Y233-1): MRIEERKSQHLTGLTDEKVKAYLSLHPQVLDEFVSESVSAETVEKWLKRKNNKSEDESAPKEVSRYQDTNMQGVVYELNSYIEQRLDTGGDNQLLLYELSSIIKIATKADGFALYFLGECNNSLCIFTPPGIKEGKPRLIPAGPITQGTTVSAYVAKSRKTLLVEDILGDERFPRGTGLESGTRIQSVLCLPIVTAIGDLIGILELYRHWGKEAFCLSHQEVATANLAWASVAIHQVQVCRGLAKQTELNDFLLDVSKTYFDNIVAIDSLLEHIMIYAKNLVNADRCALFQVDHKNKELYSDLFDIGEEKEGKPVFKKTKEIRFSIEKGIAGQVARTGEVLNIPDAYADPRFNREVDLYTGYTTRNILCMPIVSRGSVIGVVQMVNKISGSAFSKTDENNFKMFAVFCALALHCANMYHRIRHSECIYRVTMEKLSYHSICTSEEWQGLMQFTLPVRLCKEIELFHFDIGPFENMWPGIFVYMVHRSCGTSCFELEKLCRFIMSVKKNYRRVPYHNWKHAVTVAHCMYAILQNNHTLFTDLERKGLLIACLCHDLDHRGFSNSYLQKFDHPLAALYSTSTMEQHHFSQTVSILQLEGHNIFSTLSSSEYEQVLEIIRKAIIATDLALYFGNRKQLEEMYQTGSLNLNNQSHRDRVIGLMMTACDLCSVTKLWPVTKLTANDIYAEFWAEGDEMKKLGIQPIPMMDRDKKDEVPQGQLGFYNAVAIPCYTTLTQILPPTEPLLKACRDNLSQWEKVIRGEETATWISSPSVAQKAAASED

The assay addresses T1, human PDE10A (Homo sapiens, UniProt Q9Y233).
T1 construct: The human PDE10A full length assay; purchased Enzo Life Science, Lausen, Switzerland SE-534
Briefly: human PDE10A full length Scintillation Proximity Assay (SPA). It is filed as biochemical. The note with it: 50 nM cGMP and 50 nM [3H]-cGMP, 20 minutes at room temperature; read-out: PDE10A inhibition IC50. The procedure:
The following test was carried out in order to determine the activity of the compounds of the present invention. PDE10 activity of the compounds of the present invention was determined using a Scintillation Proximity Assay (SPA)-based method similar to the one previously described (Fawcett, L. et al., Proc Natl Acad Sci USA (2000) 97(7):3702-3707).
The human PDE10A full length assay was performed in 96-well micro titer plates. The reaction mixture of 50 μl contained 20 mM HEPES pH=7.5/10 mM MgCl2/0.05 mg/ml BSA (Sigma cat. #A-7906), 50 nM cGMP (Sigma, cat. #G6129) and 50 nM [^3H]-cGMP (GE Healthcare, cat. #TRK392 S.A. 13.2 Ci/mmol), 3.75 ng/well PDE10A enzyme (Enzo Life Science, Lausen, Switzerland cat #SE-534) with or without a specific test compound. A range of concentrations of the potential inhibitor was used to generate data for calculating the concentration of inhibitor resulting in 50% of the effect (e.g. IC50, the concentration of the competitor inhibiting PDE10A activity by 50%). Non-specific activity was tested without the enzyme. The reaction was initiated by the addition of the substrate solution (cGMP and [^3H]-cGMP) and allowed to progress for 20 minutes at room temperature. The reaction was terminated by adding 25 μl of YSi-SPA scintillation beads (GE Healthcare, cat. #RPNQ0150) in 18 mM zinc sulphate solution (stop reagent). After 1 h under shaking, the plate was centrifuged one minute at 170 g to allow beads to settle. Afterwards, radioactive counts were measured on a Perkin Elmer TopCount Scintillation plate reader.
On the technique in general: SPA uses beads or plates that emit light when radiolabelled molecules are held near them.
Take `CNC(=O)c1[nH]nnc1C(=O)Nc1ccn2cc(-c3ccccc3)nc2n1` [Example 65, 1H-[1,2,3]Triazole-4,5-dicarboxylic acid 5-methylamide 4-[(2-phenyl-imidazo[1,2-a]pyrimidin-7-yl)-amide]]: the IC50 is 34.8 nM. As to `CCn1ncc(C(=O)N2CCC2)c1C(=O)Nc1ccn2cc(-c3ccccc3)nc2n1` [Example 69, 4-(Azetidine-1-carbonyl)-2-ethyl-2H-pyrazole-3-carboxylic acid (2-phenyl-imidazo[1,2-a]pyrimidin-7-yl)-amide], the IC50 is 4.4 nM.

As to `COc1cccc(-c2cn3ccc(NC(=O)c4c(C(=O)N(C)CCF)cnn4C)nc3n2)c1` [Example 111, 2-Methyl-2H-pyrazole-3,4-dicarboxylic acid 4-[(2-fluoro-ethyl)-methyl-amide]3-{[2-(3-methoxy-phenyl)-imidazo[1,2-a]pyrimidin-7-yl]amide}], the IC50 amounted to 364 nM.

For the molecule `CN(CCOCCF)C(=O)c1cnn(C)c1C(=O)Nc1ccn2cc(-c3ccccc3)nc2n1` [Example 106, 2-Methyl-2H-pyrazole-3,4-dicarboxylic acid 4-{[2-(2-fluoro-ethoxy)-ethyl]-methyl-amide}3-[(2-phenyl-imidazo[1,2-a]pyrimidin-7-yl)-amide]], the IC50 came to 43.3 nM. Take `COc1cccc(C(=O)Nc2ccn3cc(-c4ccccc4)nc3n2)n1` [Example 22, 6-Methoxy-pyridine-2-carboxylic acid (2-phenyl-imidazo[1,2-a]pyrimidin-7-yl)-amide]: the IC50 is 42 nM.

For the molecule `CN(CCF)C(=O)c1cnn(C)c1C(=O)Nc1ccn2cc(-c3cccc(F)c3)nc2n1` [Example 104, 2-Methyl-2H-pyrazole-3,4-dicarboxylic acid 4-[(2-fluoro-ethyl)-methyl-amide]3-{[2-(3-fluoro-phenyl)-imidazo[1,2-a]pyrimidin-7-yl]-amide}], the IC50 turned out to be 29.6 nM. For `CCN(C)C(=O)c1cnn(CC)c1C(=O)Nc1ccn2cc(-c3ccccc3)nc2n1` [Example 73, 2-Ethyl-2H-pyrazole-3,4-dicarboxylic acid 4-(ethyl-methyl-amide) 3-[(2-phenyl-imidazo[1,2-a]pyrimidin-7-yl)-amide]] the value was 2.8 nM; for `COCCN(C)C(=O)c1cnn(C)c1C(=O)Nc1ccn2cc(-c3ccccc3)nc2n1` [Example 55, 2-Methyl-2H-pyrazole-3,4-dicarboxylic acid 4-[(2-methoxy-ethyl)-methyl-amide]3-[(2-phenyl-imidazo[1,2-a]pyrimidin-7-yl)-amide]], 8.5 nM. For `Cn1ncc(C(=O)N2CC=CC2)c1C(=O)Nc1ccn2cc(-c3ccccc3)nc2n1` [Example 114, 4-(2,5-dihydro-1H-pyrrole-1-carbonyl)-1-methyl-N-(2-phenylimidazo[1,2-a]pyrimidin-7-yl)-1H-pyrazole-5-carboxamide], the IC50 stood at 2.8 nM.

As for `Cn1ncc(C(=O)NCc2nc(C#N)cs2)c1C(=O)Nc1ccn2cc(-c3ccccc3)nc2n1` [Example 151, N4-((4-cyanothiazol-2-yl)methyl)-1-methyl-N5-(2-phenylimidazo[1,2-a]pyrimidin-7-yl)-1H-pyrazole-4,5-dicarboxamide], the IC50 is 288 nM. Take `COc1cccc(-c2cn3ccc(NC(=O)c4c(C(=O)N5CCC5)cnn4C)nc3n2)c1` [Example 45, 4-(Azetidine-1-carbonyl)-2-methyl-2H-pyrazole-3-carboxylic acid [2-(3-methoxy-phenyl)-imidazo[1,2-a]pyrimidin-7-yl]-amide]: the IC50 amounted to 8.3 nM. With `CCn1nc([N+](=O)[O-])cc1C(=O)Nc1ccn2cc(-c3ccccc3)nc2n1` [Example 15, 2-Ethyl-5-nitro-2H-pyrazole-3-carboxylic acid (2-phenyl-imidazo[1,2-a]pyrimidin-7-yl)-amide], the IC50 is 748 nM. As for `O=C(Nc1ccn2cc(-c3ccccc3)nc2n1)c1nc(C2CC2)ccc1Nc1cncnc1` [Example 77, 6-Cyclopropyl-3-(pyrimidin-5-ylamino)-pyridine-2-carboxylic acid (2-phenyl-imidazo[1,2-a]pyrimidin-7-yl)-amide], the IC50 is 6.3 nM.

Regarding `Cc1nc(CNC(=O)c2cnn(C)c2C(=O)Nc2ccn3cc(-c4ccccc4)nc3n2)cs1` [Example 163, 1-methyl-N4-((2-methylthiazol-4-yl)methyl)-N5-(2-phenylimidazo[1,2-a]pyrimidin-7-yl)-1H-pyrazole-4,5-dicarboxamide], the IC50 stood at 636 nM. For `O=C(NCC(F)(F)F)c1nccnc1C(=O)Nc1ccn2cc(-c3ccccc3)nc2n1` [Example 43, Pyrazine-2,3-dicarboxylic acid 2-[(2-phenyl-imidazo[1,2-a]pyrimidin-7-yl)-amide]3-[(2,2,2-trifluoro-ethyl)-amide]], the IC50 amounted to 900 nM. For `Cn1ncc(C(=O)N2CCC2)c1C(=O)Nc1ccn2cc(-c3ccccc3)nc2n1` [Example 29, 4-(Azetidine-1-carbonyl)-2-methyl-2H-pyrazole-3-carboxylic acid (2-phenyl-imidazo[1,2-a]pyrimidin-7-yl)-amide] the value was 3.3 nM. Regarding `Cn1ncc(C(=O)NCc2ccon2)c1C(=O)Nc1ccn2cc(-c3ccccc3)nc2n1` [Example 146, N4-(isoxazol-3-ylmethyl)-1-methyl-N5-(2-phenylimidazo[1,2-a]pyrimidin-7-yl)-1H-pyrazole-4,5-dicarboxamide], the IC50 was 212 nM.

Consider `Cn1ncc(C(=O)NCC(F)F)c1C(=O)Nc1ccn2cc(-c3ccccc3)nc2n1` [Example 129, N4-(2,2-difluoroethyl)-1-methyl-N5-(2-phenylimidazo[1,2-a]pyrimidin-7-yl)-1H-pyrazole-4,5-dicarboxamide], for which the IC50 was determined as 33.2 nM. On to `Cn1ncc(C(=O)N2CCC2)c1C(=O)Nc1ccn2cc(-c3cccc(Cl)c3)nc2n1` [Example 63, 4-(Azetidine-1-carbonyl)-2-methyl-2H-pyrazole-3-carboxylic acid [2-(3-chloro-phenyl)-imidazo[1,2-a]pyrimidin-7-yl]-amide], for which the IC50 came out at 4.8 nM. For `Cc1cnc(CNC(=O)c2cnn(C)c2C(=O)Nc2ccn3cc(-c4ccccc4)nc3n2)s1` [Example 124, 1-methyl-N4-((5-methylthiazol-2-yl)methyl)-N5-(2-phenylimidazo[1,2-a]pyrimidin-7-yl)-1H-pyrazole-4,5-dicarboxamide], the IC50 worked out at 17.7 nM.

For the molecule `Cn1ncc(C(=O)N2CCOCC2)c1C(=O)Nc1ccn2cc(-c3ccccc3)nc2n1` [Example 30, 2-Methyl-4-(morpholine-4-carbonyl)-2H-pyrazole-3-carboxylic acid (2-phenyl-imidazo[1,2-a]pyrimidin-7-yl)-amide], the IC50 came to 33.1 nM. Regarding `Cn1ncc(C(=O)NCc2ccn[nH]2)c1C(=O)Nc1ccn2cc(-c3ccccc3)nc2n1` [Example 113, N4-((1H-pyrazol-5-yl)methyl)-1-methyl-N5-(2-phenylimidazo[1,2-a]pyrimidin-7-yl)-1H-pyrazole-4,5-dicarboxamide], the IC50 stood at 2.6 nM. Take `Cn1ncc(C(=O)NCc2noc(C3CC3)n2)c1C(=O)Nc1ccn2cc(-c3ccccc3)nc2n1` [Example 166, N4-((5-cyclopropyl-1,2,4-oxadiazol-3-yl)methyl)-1-methyl-N5-(2-phenylimidazo[1,2-a]pyrimidin-7-yl)-1H-pyrazole-4,5-dicarboxamide]: the IC50 was 812 nM. `Cn1ncc(C(=O)NC2(C#N)CC2)c1C(=O)Nc1ccn2cc(-c3ccccc3)nc2n1` [Example 145, N4-(1-cyanocyclopropyl)-1-methyl-N5-(2-phenylimidazo[1,2-a]pyrimidin-7-yl)-1H-pyrazole-4,5-dicarboxamide]: the IC50 was found to be 210 nM. On to `Cn1ncc(C(=O)NCc2nnn[nH]2)c1C(=O)Nc1ccn2cc(-c3ccccc3)nc2n1` [Example 147, N4-((1H-tetrazol-5-yl)methyl)-1-methyl-N5-(2-phenylimidazo[1,2-a]pyrimidin-7-yl)-1H-pyrazole-4,5-dicarboxamide], for which the IC50 was found to be 235 nM. In the case of `CC(NC(=O)c1cnn(C)c1C(=O)Nc1ccn2cc(-c3ccccc3)nc2n1)c1cccnc1` (centres unmarked) [Example 139, 1-methyl-N5-(2-phenylimidazo[1,2-a]pyrimidin-7-yl)-N4-(1-(pyridin-3-yl)ethyl)-1H-pyrazole-4,5-dicarboxamide] it was 148 nM; in that of `Cn1ncc(C(=O)NCC2CC2)c1C(=O)Nc1ccn2cc(-c3ccccc3)nc2n1` [Example 58, 2-Methyl-2H-pyrazole-3,4-dicarboxylic acid 4-cyclopropylmethyl-amide 3-[(2-phenyl-imidazo[1,2-a]pyrimidin-7-yl)-amide]], 27.3 nM; in that of `COc1cccc(-c2cn3ccc(NC(=O)c4c(C(=O)N(C)CCOCCF)cnn4C)nc3n2)c1` [Example 110], 222 nM. As for `Cn1ncc(C(=O)Nc2ccccc2)c1C(=O)Nc1ccn2cc(-c3ccccc3)nc2n1` [Example 133, 1-methyl-N4-phenyl-N5-(2-phenylimidazo[1,2-a]pyrimidin-7-yl)-1H-pyrazole-4,5-dicarboxamide], the IC50 was 52.2 nM.

Usually IC50 stands for the midpoint of a concentration-inhibition curve.
